DC50, Dmax and IC50 data for 13 compounds are collected here from patent publication US20260035384A1, “COMPOUND CONTAINING CYCLOHEXYL” (CHIA TAI TIANQING PHARMACEUTICAL GROUP CO., LTD., priority 2022, published 2026).

Numbering of substitutions follows the chain as printed. Where only a bound is given, the exact number is not on record here.

Holding throughout (type): cell-based
The target in one assay is T1, AR in LNCaP cells (Homo sapiens, UniProt P10275, T878A).
T1 construct: Assay on Degradation Activity for AR in LNCaP Cells; endogenous in cells; host or cells: LNCaP cells
T1 sequence (P10275 1-920 T878A): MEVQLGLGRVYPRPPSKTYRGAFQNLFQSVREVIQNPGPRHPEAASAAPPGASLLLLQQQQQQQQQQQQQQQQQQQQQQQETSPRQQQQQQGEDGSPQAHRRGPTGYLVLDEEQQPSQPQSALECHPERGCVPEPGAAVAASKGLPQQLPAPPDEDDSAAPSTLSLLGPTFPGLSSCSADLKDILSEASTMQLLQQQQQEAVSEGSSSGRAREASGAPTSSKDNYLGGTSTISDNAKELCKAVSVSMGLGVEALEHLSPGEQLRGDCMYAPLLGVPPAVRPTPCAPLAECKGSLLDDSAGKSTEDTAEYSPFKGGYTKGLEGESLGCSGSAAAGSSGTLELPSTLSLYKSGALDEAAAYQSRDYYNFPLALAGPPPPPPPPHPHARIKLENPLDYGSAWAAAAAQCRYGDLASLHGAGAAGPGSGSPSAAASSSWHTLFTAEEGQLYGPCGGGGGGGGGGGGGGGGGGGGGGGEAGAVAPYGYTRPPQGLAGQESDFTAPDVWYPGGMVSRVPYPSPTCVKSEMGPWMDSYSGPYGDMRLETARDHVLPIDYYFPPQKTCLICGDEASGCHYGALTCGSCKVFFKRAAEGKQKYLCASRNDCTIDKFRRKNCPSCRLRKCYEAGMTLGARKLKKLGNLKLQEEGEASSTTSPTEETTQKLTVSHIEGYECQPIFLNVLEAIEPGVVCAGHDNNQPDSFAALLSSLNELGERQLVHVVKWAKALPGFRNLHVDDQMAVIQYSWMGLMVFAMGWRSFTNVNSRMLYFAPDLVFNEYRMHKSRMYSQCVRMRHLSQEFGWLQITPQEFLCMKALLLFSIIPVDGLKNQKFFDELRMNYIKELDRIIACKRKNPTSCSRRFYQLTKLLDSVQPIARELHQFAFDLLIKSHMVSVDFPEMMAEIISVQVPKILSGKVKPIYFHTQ
As to the kind of experiment: Assay on degradation activity for AR in LNCaP cells (HTRF human androgen receptor detection kit). Conditions: 24 h incubation; for DC50: HTRF; for Dmax: maximum degradation rate. Here is the method:
(§1) The detection was carried out using the HTRF HUMAN ANDROGEN RECEPTOR DETECTION KIT (cisbio, 64ANDRPEG), 4× Supplemented Lysis buffer was prepared using the Blocking reagent stock solution (100×) and Lysis buffer stock solution (4×), and 1× Supplemented Lysis buffer was prepared using the 4× Supplemented Lysis buffer and ddH2O. Premixed antibody solutions were prepared using Detection buffer, Androgen Receptor Eu Cryptate antibody, and Androgen Receptor d2 antibody.
(§2) LNCaP cells in a good growth state were taken, washed with PBS, digested with pancreatin, and added with 2% CSS—FBS phenol red-free 1640 complete medium to terminate the digestion. The cells were collected by using a centrifuge tube, adjusted to a cell density of 1×10^6 cells/mL, and seeded in a 96-well plate (100 μL/well). The cells were incubated overnight in a cell incubator. Compounds were added using a nanoliter pipettor such that the final concentrations of the compounds were 500 nM-0.488 nM. Two duplicate wells were set for each concentration, and meanwhile, a control was set. After another 24 h of incubation in the cell incubator, the medium was pipetted out, the 1× Supplemented Lysis buffer was added at 40 μL/well to lyse the cells. After the cells were oscillated for 40 min at room temperature, 16 μL of the cell lysate was added to a 384-well plate, the Premixed antibody solutions were added at 4 μL/well, and the mixture was left to stand at 25° C. for 2 h. Fluorescence values were detected at 665 nm/620 nm using an Envision microplate reader, the four-parameter analysis was performed, the dose-response curves were fit, and DC50 (the concentration of the drug when the degradation rate reaches 50%) and Dmax (the maximum degradation rate) were calculated.
(In general: In TR-FRET formats the signal depends on donor and acceptor labels being close together.)

The test system of a further assay is VCaP cells. The assay is described as follows: Assay on inhibitory activity for VCaP cell proliferation (CCK-8). Conditions: 168 h incubation. How it is done:
2.1 Assay on inhibitory activity for VCaP cell proliferation VCaP cells in a good growth state were taken, washed with PBS, digested with pancreatin, and added with 5% CSS—FBS phenol red-free DMEM complete medium to terminate the digestion. The cells were collected by using a centrifuge tube, adjusted to a cell density of 1×10^5 cells/mL, and seeded in a 96-well plate (100 μL/well). Meanwhile, compounds were added using a nanoliter pipettor such that the final concentrations of the compounds were 10000 nM-0.61 nM. Two duplicate wells were set for each concentration, and meanwhile, a control was set. After another 168 h of incubation in the cell incubator, the detection reagent CCK-8 (manufacturer: Dojindo, 10 μL/well) was added.

For a further assay, the system named is LNCaP cells. The assay is described as follows: Assay on inhibitory activity for LNCaP cell proliferation (CCK-8). Conditions: 168 h incubation. In short, it runs like this:
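Cells seeded at 1×10^5 cells/mL in phenol red-free 1640 with 2% CSS-FBS, treated at final 10000 nM-0.61 nM in duplicate. After 168 h incubation, viability read with CCK-8.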

Another assay addresses T2, AR in VCaP cells (Homo sapiens, UniProt P10275).
T2 construct: Assay on Degradation Activity for AR in VCaP Cells; endogenous in cells; host or cells: VCaP cells
T2 sequence (P10275 1-920): T1 sequence (P10275 1-920 T878A) with A878T
As to the kind of experiment: Assay on degradation activity for AR in VCaP cells (HTRF human androgen receptor detection kit). Conditions: 24 h incubation. Here is the method: as §1
as §2, with “VCaP” for “LNCaP”, “DMEM” for “1640”, “µL/well).” for “μL/well).”, “1000 nM-0.977” for “500 nM-0.488”

Broadly, the DC50 is the concentration at which degradation of the target reaches its halfway point. As usually defined, the Dmax is the largest share of the target that was removed. Low values mean shallow degradation, high ones deep degradation. As usually defined, the IC50 is the concentration that gives 50% inhibition. A higher IC50 goes with weaker potency.

`N#Cc1ccc(O[C@H]2CC[C@H](NC(=O)c3ccc(N4CCC5(CC4)CC(CN4CCc6c(ccc7c(C8CCC(=O)NC8=O)noc67)C4)C5)nn3)CC2)cc1Cl` (some centres unmarked) [Compound 36]: the figures for the DC50 on AR in LNCaP cells and at AR in VCaP cells were not above 20 nM and not above 1 nM, respectively. On AR in LNCaP cells, this compound gave a Dmax of more than 80%. Besides, the figures for the IC50 with VCaP cells (Homo sapiens) and with LNCaP cells (Homo sapiens) were less than 10 nM and less than 1000 nM, respectively.

On to `N#Cc1ccc(O[C@H]2CC[C@H](NC(=O)c3ccc(N4CCC5(CC4)CC(CN4CCc6ccc7c(C8CCC(=O)NC8=O)noc7c6CC4)C5)nn3)CC2)cc1Cl` (some centres unmarked) [Compound 37], for which the DC50 is not above 20 nM at AR in LNCaP cells and not above 1 nM at AR in VCaP cells. The same compound came in with a Dmax at AR in LNCaP cells of more than 80%. Further, the figures for the IC50 in the assay with VCaP cells (Homo sapiens) and in the assay with LNCaP cells (Homo sapiens) were less than 100 nM and less than 1000 nM, respectively.

For the compound `CN(c1ccc(C#N)c(Cl)c1)[C@H]1CC[C@H](NC(=O)c2ccc(N3CCC(CN4CCc5c(ccc6c(C7CCC(=O)NC7=O)noc56)C4)CC3)cc2)CC1` (some centres unmarked) [Compound 58], the figures for the IC50 in the assay with VCaP cells (Homo sapiens) and in the assay with LNCaP cells (Homo sapiens) were less than 10 nM and less than 1000 nM, respectively. At AR in VCaP cells, this compound returned a 50% degradation concentration (DC50) not above 1 nM.

The compound `N#Cc1ccc(O[C@H]2CC[C@H](NC(=O)c3ccc(N4CCC(N5CCC(CN6CCc7c(ccc8c(C9CCC(=O)NC9=O)noc78)C6)CC5)CC4)nn3)CC2)cc1Cl` (some centres unmarked) [Compound 88] showed a half-inhibitory concentration (IC50) in the assay on LNCaP cells (Homo sapiens) of less than 1000 nM. On AR in VCaP cells, this compound gave a DC50 not above 1 nM.

On to `N#Cc1ccc(O[C@H]2CC[C@H](NC(=O)c3ccc(N4CCC(N5CC(CN6CCc7ccc8c(C9CCC(=O)NC9=O)noc8c7C6)C5)CC4)nn3)CC2)cc1Cl` (some centres unmarked) [Compound 91], for which the 50% degradation concentration (DC50) on AR in LNCaP cells was not above 20 nM; on AR in VCaP cells, not above 1 nM. For the same compound, at AR in LNCaP cells, the Dmax is more than 80%. In addition, the 50% inhibitory concentration (IC50) was less than 10 nM in the assay with VCaP cells (Homo sapiens, VCaP, 168 h) and less than 1000 nM with LNCaP cells (Homo sapiens).

With `N#Cc1ccc(O[C@H]2CC[C@H](NC(=O)c3ccc(N4CCC(N5CC(CN6CCc7c(ccc8c(C9CCC(=O)NC9=O)noc78)C6)C5)CC4)nn3)CC2)cc1Cl` (some centres unmarked) [Compound 92], the IC50 in the assay on VCaP cells (Homo sapiens, VCaP, 168 h) was less than 10 nM; in the assay on LNCaP cells (Homo sapiens), less than 1000 nM. This compound also registered a DC50 on AR in VCaP cells not above 1 nM.

Consider `N#Cc1ccc(O[C@H]2CC[C@H](NC(=O)c3ccc(N4CCC(N5CC(N6CCc7ccc8c(C9CCC(=O)NC9=O)noc8c7CC6)C5)CC4)nn3)CC2)cc1Cl` (some centres unmarked) [Compound 95], for which the half-maximal inhibitory concentration (IC50) with VCaP cells (Homo sapiens) was less than 100 nM; in the assay with LNCaP cells (Homo sapiens), less than 1000 nM. This compound also yielded a 50% degradation concentration (DC50) on AR in VCaP cells not above 1 nM.

Turning to `N#Cc1ccc(O[C@H]2CC[C@H](NC(=O)c3ccc(N4CCC(N5CC(N6Cc7ccc8c(C9CCC(=O)NC9=O)coc8c7C6)C5)CC4)nn3)CC2)cc1Cl` (some centres unmarked) [Compound 96], the 50% inhibitory concentration (IC50) is less than 10 nM with VCaP cells (Homo sapiens, VCaP, 168 h) and less than 1000 nM with LNCaP cells (Homo sapiens). Moreover, the 50% degradation concentration (DC50) on AR in VCaP cells was not above 1 nM.

With `N#Cc1ccc(O[C@H]2CC[C@H](NC(=O)c3ccc(N4CCC(N5CC(CN6Cc7ccc8c(C9CCC(=O)NC9=O)coc8c7C6)C5)CC4)nn3)CC2)cc1Cl` (some centres unmarked) [Compound 98], the 50% degradation concentration (DC50) at AR in LNCaP cells was not above 20 nM; at AR in VCaP cells it was not above 1 nM. On AR in LNCaP cells, the Dmax was more than 80%. Further, the half-maximal inhibitory concentration (IC50) with VCaP cells (Homo sapiens, VCaP, 168 h) is less than 100 nM; in the assay with LNCaP cells (Homo sapiens), less than 1000 nM.

Take `N#Cc1ccc(O[C@H]2CC[C@H](NC(=O)c3ccc(N4CCC(CN5CC(CN6Cc7cc8onc(C9CCC(=O)NC9=O)c8cc7C6)C5)CC4)nn3)CC2)cc1Cl` (some centres unmarked) [Compound 102]: the DC50 at AR in LNCaP cells was not above 20 nM; at AR in VCaP cells, not above 1 nM. The same compound yielded a Dmax at AR in LNCaP cells of more than 80%. Further, the IC50 in the assay with VCaP cells (Homo sapiens, VCaP, 168 h) is less than 10 nM; in the assay with LNCaP cells (Homo sapiens), less than 1000 nM.

Take `N#Cc1ccc(O[C@H]2CC[C@H](NC(=O)c3ccc(N4CCN(C5CN(CC6Cc7ccc8c(C9CCC(=O)NC9=O)coc8c7C6)C5)CC4)nn3)CC2)cc1Cl` (some centres unmarked) [Compound 107]: the DC50 was not above 20 nM on AR in LNCaP cells and not above 1 nM at AR in VCaP cells. The Dmax at AR in LNCaP cells was more than 80%. Moreover, the IC50 was less than 10 nM in the assay with VCaP cells (Homo sapiens, VCaP, 168 h) and less than 1000 nM with LNCaP cells (Homo sapiens).

With `N#Cc1ccc(O[C@H]2CC[C@H](NC(=O)c3ccc(N4CCN(C5CN(CC6Cc7ccc8c(C9CCC(=O)NC9=O)coc8c7C6)C5)CC4)nn3)CC2)cc1Cl` (some centres unmarked) [Compound 108], the 50% inhibitory concentration (IC50) in the assay on VCaP cells was less than 10 nM; with LNCaP cells, less than 1000 nM. Besides, the 50% degradation concentration (DC50) on AR in VCaP cells is not above 1 nM.

In the case of `CN(c1ccc(C#N)c(Cl)c1)[C@H]1CC[C@H](NC(=O)c2ccc(N3CC(CN4CCc5c(ccc6c(C7CCC(=O)NC7=O)noc56)C4)C3)cc2)CC1` (some centres unmarked) [Compound 113], the IC50 is less than 100 nM with VCaP cells (Homo sapiens) and less than 1000 nM with LNCaP cells (Homo sapiens). The same compound displayed a DC50 at AR in VCaP cells not above 1 nM.
